Measurements published in patent US20250228807A1, “TRANEXAMIC CLASS ARGININE AND HISTIDINE MIMICS AS THERAPEUTIC AGENTS” (Tranexamic Technologies, LLC, priority 2022, published 2025).
Entries after “also recorded” stand apart in the source; their conditions may differ.

Tests used:
[1] = Aqueous solubility / preparation of solutions in PBS buffer; format: physicochemical; details: for solubility: concentration of solution: PBS buffer
Protocol: Chemical synthesis and solubility. TA was purchased from commercial sources and TA-NAc was prepared straightforwardly through acetylation of TA based on standard practices.
TA-R1-R4 were accessible from their corresponding amino acids through treatment with methylisothiourea hemisulfate. […] Esterification of TA-R1 to produce TA-R1OMe, a novel compound, improved the solubility for preparation of a 2% (w/v) solution in phosphate buffered saline (PBS) buffer (pH=7.4) and biological testing.
The requisite amino acids for synthesis of TA-R3/R4 required multistep synthetic approaches. Briefly, the preparation of TA-R3, a novel compound, began from cis-1,3-cyclohexanedicarboxylic acid and proceeded through eight sequential synthetic steps to afford the product as its HCl salt. Protection/deprotection of the amino group was required to facilitate purification, as was a stepwise oxidation sequence from the alcohol to the carboxylic acid. […] The approach to TA-R4, a known compound, required one additional step to produce the starting dicarboxylic acid, in this case through oxidative cleavage of norbornene. […] All the final compounds were fully characterized by ^1H nuclear magnetic resonance (NMR), ^13C NMR, and high-resolution electrospray ionization mass spectrometry (HRMS-ESI).

[2] = test system: MDA-MB 468 triple-negative breast cancer cells; experiment: MTT cell viability assay; format: cell-based; details: MDA-MB-468, 72 h, relative to TA
Protocol: Effects of compounds on cell viability. MDA-MB 468 triple-negative breast cancer cells were plated at 6,250 cells per well in a 96-well plate and incubated overnight at 37° C. Cell viability was evaluated using the MTT (3-(4,5-dimethylthiazol-2-yl)-2,5-diphenyltetrazolium bromide) assay carried out according to manufacturer's instructions.

[3] = test system: programmed death-ligand 1 (PD-L1); experiment: Immunoblot analysis of treated MDA-MB-468 cells: PD-L1 expression; format: cell-based; details: high (2%) concentration
Source text: (§1) Biochemical evaluation of treatment of breast cancer cells with TA-R2. […] This is important because PD-L1 expression in cancer cells blocks T-cell-based immunity. So, TA-R2 would be predicted to increase anticancer immunity in immunocompetent systems. Histone acetyltransferase (HAT) enzyme assays were used to determine if TA-R2 inhibits p300 activity. […] This fits with the hypothesis that TAs act in part by inhibiting acetyltransferases such as p300/CPB that acetylate histones. No acetylation is observed in controls upon omission of H3/p300 or acetyl coenzyme A (Acetyl CoA).

[4] = target: T1, recombinant p300 (Homo sapiens, UniProt Q09472); experiment: p300 histone acetyltransferase (HAT) enzyme assay; format: biochemical; details: for p300 acetylation of Histone 3 (H3) in vitro: recombinant p300, Histone H3, tritiated acetyl CoA, TA at 2%
T1 construct: purchased
T1 sequence (Q09472 whole entry, species assumed): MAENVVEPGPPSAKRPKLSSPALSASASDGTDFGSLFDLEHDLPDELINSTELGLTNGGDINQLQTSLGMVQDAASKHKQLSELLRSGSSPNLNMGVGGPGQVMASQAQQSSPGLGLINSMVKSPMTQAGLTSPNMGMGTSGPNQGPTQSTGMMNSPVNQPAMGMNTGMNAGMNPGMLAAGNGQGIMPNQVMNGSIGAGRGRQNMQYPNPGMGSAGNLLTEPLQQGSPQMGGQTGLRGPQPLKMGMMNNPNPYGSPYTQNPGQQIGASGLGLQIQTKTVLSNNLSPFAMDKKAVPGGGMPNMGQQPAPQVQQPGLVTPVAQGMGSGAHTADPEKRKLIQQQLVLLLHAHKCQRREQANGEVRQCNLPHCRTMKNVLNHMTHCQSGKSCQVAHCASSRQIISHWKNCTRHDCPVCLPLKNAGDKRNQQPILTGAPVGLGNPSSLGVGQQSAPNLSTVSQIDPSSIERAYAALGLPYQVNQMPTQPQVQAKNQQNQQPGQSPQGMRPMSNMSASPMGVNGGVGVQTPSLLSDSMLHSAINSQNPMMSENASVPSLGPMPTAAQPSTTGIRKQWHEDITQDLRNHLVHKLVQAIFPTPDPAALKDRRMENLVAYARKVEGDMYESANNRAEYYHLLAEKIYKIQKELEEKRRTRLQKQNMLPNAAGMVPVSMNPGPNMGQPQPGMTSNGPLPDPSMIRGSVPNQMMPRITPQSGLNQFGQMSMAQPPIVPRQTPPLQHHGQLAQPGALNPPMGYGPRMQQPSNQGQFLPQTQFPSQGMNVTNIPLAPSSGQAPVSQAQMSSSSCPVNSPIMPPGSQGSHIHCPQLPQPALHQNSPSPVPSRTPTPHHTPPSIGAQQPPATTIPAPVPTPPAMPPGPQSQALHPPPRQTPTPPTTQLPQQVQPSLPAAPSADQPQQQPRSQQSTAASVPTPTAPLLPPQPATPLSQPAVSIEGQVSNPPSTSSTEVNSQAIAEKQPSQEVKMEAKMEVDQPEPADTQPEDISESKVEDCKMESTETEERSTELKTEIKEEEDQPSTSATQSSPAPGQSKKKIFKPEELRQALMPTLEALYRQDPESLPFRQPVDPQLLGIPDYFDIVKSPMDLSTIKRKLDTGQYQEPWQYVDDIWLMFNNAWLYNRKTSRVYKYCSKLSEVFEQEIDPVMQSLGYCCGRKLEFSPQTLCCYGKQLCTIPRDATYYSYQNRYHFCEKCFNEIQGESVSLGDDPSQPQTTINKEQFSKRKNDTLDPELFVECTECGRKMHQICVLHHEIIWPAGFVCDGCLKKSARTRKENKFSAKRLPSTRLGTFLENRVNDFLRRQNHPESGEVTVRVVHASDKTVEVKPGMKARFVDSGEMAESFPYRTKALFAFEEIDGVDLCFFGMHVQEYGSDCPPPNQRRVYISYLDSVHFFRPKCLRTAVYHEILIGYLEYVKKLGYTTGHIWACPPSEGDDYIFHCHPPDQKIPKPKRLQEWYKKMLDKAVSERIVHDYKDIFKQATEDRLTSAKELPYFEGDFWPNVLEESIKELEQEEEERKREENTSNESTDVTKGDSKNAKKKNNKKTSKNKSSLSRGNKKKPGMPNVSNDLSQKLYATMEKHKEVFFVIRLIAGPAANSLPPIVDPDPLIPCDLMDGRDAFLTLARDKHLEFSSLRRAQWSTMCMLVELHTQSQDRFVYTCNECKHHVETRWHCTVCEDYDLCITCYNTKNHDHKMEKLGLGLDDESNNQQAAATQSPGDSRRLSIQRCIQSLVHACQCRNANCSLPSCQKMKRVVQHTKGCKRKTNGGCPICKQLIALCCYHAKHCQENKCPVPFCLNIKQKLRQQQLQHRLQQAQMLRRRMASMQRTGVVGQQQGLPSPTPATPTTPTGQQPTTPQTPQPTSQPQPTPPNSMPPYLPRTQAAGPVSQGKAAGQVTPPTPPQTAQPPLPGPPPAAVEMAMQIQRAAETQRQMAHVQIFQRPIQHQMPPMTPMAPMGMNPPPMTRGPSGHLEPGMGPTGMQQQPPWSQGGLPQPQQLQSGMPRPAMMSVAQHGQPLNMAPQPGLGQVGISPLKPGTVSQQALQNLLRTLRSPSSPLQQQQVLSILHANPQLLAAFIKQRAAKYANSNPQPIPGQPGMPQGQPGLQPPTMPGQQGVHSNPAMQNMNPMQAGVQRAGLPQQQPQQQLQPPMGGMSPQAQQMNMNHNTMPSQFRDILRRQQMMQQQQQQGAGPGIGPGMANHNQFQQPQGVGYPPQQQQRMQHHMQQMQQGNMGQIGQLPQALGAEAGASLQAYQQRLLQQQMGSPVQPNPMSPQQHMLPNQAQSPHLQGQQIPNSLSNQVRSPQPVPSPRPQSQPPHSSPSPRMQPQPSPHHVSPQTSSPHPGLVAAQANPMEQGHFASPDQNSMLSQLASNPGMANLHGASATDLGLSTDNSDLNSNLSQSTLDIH
Protocol: Inhibition of p300 acetyltransferase activity. p300 enzyme assays were carried out with TA, TA-NAc, and TA-R2 using commercially available recombinant p300, and recombinant, commercial Histone H3 and tritiated acetyl CoA as the substrates. P300 assays were performed in the presence of increasing concentrations of each compound and acetylation of […] was evaluated by scintillation counting of Histone H3 adsorbed to 1 cm×1 cm nitrocellulose squares, after extensive washing of the nitrocellulose squares with 20% trichloroacetic acid.
as §1

[5] = test system: MYC oncogene; experiment: Immunoblot analysis of treated MDA-MB-468 cells: MYC expression; format: cell-based
Source text: as §1

Compound	aqueous solubility (in words) [1]	solubility: concentration of solution [1]	fold lower IC50 than TA (cytotoxicity) [2]	PD-L1 expression [3]	further results
Cl.N=C(N)NC[C@H]1CCC[C@@H](C(=O)O)C1 (relative stereo) [TA-R3, cis-amino(((3-carboxycyclohexyl)methyl)amino)methaniminium chloride]	insolubility; also recorded: poor aqueous solubility	~0.1%	approximately 10 fold	–	–
COC(=O)[C@@H]1CCC[C@H](CNC(=N)N)C1.Cl (relative stereo) [TA-R3-OMe, cis-amino(((3 (methoxycarbonyl)cyclohexyl)methyl)amino)methaniminium chloride]	–	ca. 2%	approximately 10 fold	–	–
N=C(N)NC[C@@H]1CC[C@H](C(=O)O)C1 (relative stereo) [TA-R4, cis-3-(guanidinomethyl)cyclopentane-1-carboxylic acid]	sufficient solubility	ca. 2%	–	–	–
NC[C@H]1CC[C@H](C(=O)O)CC1 [TA, Tranexamic acid, reference compound]	–	–	–	do not	p300 acetylation of Histone 3 (H3) in vitro [4]: does not affect
CC(=O)NCC1CCC(C(=O)[O-])CC1.[Na+] (stereo not drawn) [TA-NAc, reference compound]	better aqueous solubility	–	–	do not	–
N=C(N)NC[C@H]1CC[C@H](C(=O)O)CC1 [TA-R1, trans-4-guanidinomethylcyclohexanecarboxylic acid]	poor aqueous solubility	–	–	–	–
COC(=O)[C@H]1CC[C@H](CNC(=N)N)CC1.Cl [TA-R1-OMe, amino((((1r,4r)-4-(methoxycarbonyl)cyclohexyl)methyl)amino)methaniminium chloride]	–	–	approximately 10 fold	–	solubility: concentration of solution prepared ([1]; phosphate buffered saline (PBS) buffer (pH=7.4)): 2 % (w/v)
Cl.N=C(N)N[C@H]1CC[C@H](C(=O)O)CC1 [TA-R2, amino(((1r,4r)-4-carboxycyclohexyl)amino)methaniminium chloride]	good aqueous solubility	–	–	decreases programmed death-ligand 1 (PD-L1)	expression of the MYC oncogene at 0.5% ([5]; 0.5%): downregulated MYC; expression of the MYC oncogene at 2% (w/v) ([5]; 2% (w/v), compared with TA): downregulated expression of the MYC oncogene; expression of the MYC oncogene ([5]; compared with TA and TA-NAc at the same concentrations): decreases expression of the MYC oncogene to a greater extent than TA or NAc-TA; histone acetylation at 2% (w/v) compared with TA ([4]; 2% (w/v)): reduced histone acetylation to a greater extent than TA; p300 acetylation of Histone 3 (H3) in vitro [4]: decreases histone acetylation more strongly than the other two compounds
